One may read the IC50 as the concentration that inhibits the measured activity by half.

T1 sequence (P26664 1658-1711): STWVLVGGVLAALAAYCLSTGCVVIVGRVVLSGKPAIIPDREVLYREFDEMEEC
T1 sequence (P26664 1027-1657): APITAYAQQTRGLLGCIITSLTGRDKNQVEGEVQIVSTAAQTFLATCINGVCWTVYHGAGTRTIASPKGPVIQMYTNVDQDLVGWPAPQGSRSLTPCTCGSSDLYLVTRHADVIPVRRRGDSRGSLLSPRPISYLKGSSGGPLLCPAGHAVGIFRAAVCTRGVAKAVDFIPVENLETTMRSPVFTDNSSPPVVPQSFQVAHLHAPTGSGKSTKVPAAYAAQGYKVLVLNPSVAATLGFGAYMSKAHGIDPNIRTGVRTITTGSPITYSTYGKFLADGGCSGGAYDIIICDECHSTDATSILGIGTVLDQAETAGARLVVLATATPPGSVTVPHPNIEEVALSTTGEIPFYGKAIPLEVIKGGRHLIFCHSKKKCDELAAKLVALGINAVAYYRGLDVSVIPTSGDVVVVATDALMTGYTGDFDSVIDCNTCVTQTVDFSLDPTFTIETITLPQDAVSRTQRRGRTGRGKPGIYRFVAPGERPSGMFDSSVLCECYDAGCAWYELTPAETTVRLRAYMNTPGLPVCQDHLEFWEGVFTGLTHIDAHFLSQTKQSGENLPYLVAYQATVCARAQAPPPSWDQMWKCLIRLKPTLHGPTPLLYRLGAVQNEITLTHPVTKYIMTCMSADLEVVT

One test addresses T1, HCV NS3-4A serine protease (full-length NS3-4A protein, genotype 1a, strain HCV-1) (Hepatitis C virus genotype 1a, UniProt P26664).
T1 construct: using the full-length NS3-4A protein (genotype 1a, strain HCV-1)
Description: HCV NS3-4A protease assay. The class given is biochemical. The following applies: Protease IC50. On the procedure: The inhibitory activity of certain compounds of Table A against HCV NS3-4A serine protease is determined in a homogenous assay using the full-length NS3-4A protein (genotype 1a, strain HCV-1) and a commercially available internally-quenched fluorogenic peptide substrate as described by Taliani, M., et al. 1996 Anal. Biochem. 240:60-67, which is incorporated by reference in its entirety.
Regarding `CCCC(NC(=O)[C@@H]1C[C@@]2(CN1C(=O)C(NC(=O)[C@@H](NC(=O)C(C)(C)N1CCCC1)C1CCCCC1)C(C)(C)C)C(C)(C)C21CCC1)C(=O)NS(=O)(=O)C1CC1` (stereo partly drawn) [Compound 2, (5R,8S)-7-[2-({(2S)-2-cyclohexyl-2-[(2-methyl-2-pyrrolidin-1-ylpropanoyl)amino]acetyl}amino)-3,3-dimethylbutanoyl]-N-{1-[(cyclopropylsulfonyl)carba-moyl]butyl}-10,10-dimethyl-7-azadispiro[3.0.4.1]decane-8-carboxamide], the IC50 worked out at 2250 nM. The same measure, in the same setting: in the case of `CC(C)(C)[C@H](NC(=O)[C@@H](NC(=O)C(C)(C)N1CCCC1)C1CCCCC1)C(=O)N1C[C@]2(C[C@H]1C(=O)NC1(C(=O)NS(=O)(=O)C3CC3)CC1)C(C)(C)C21CCC1` [Compound 3, (5R,8S)-7-[(2S)-2-({(2S)-2-cyclohexyl-2-[(2-methyl-2-pyrrolidin-1-ylpropanoyl)amino]acetyl}amino)-3,3-dimethylbutanoyl]-N-{1-[(cyclopropylsulfonyl)carba-moyl]cyclopropyl}-10,10-dimethyl-7-azadispiro[3.0.4.1]decane-8-carboxamide] it was 45 nM; in that of `C=C[C@@H]1C[C@]1(NC(=O)[C@@H]1C[C@@]2(CN1C(=O)[C@@H](NC(=O)[C@@H](NC(=O)[C@@H]1CCCCN1C(C)C)C(C)(C)C)C(C)(C)C)C(C)(C)C21CCC1)C(=O)NS(=O)(=O)c1cccc2cc[nH]c12` [Compound 4, (5R,8S)-N-{(1R,2S)-1-[(1H-indol-7-ylsulfonyl)carbamoyl]-2-vinylcyclopropyl}-7-[(2S)-2-{[(2S)-2-({[(2S)-1-isopropylpiperidin-2-yl]carbonyl}amino)-3,3-dimethylbutanoyl]amino}-3,3-dimethylbutanoyl]-10,10-dimethyl-7-azadispiro[3.0.4.1]decane-8-carboxamide], 0.8 nM.

For the compound `C=C[C@@H]1C[C@]1(NC(=O)[C@@H]1C[C@@]2(CN1C(=O)C(NC(=O)[C@@H](NC(=O)OC(C)(C)C)C(C)(C)C)C(C)(C)C)C(C)(C)C21CCC1)C(=O)NS(=O)(=O)c1ccccc1` (stereo partly drawn) [Compound 5, tert-butyl {(1S)-1-[(1-{[(5R,8S)-10,10-dimethyl-8-({(1R,2S)-1-[(phenylsulfonyl)carbamoyl]-2-vinylcyclopropyl}carbamoyl)-7-azadispiro[3.0.4.1]dec-7-yl]carbonyl}-2,2-dimethylpropyl)carbamoyl]-2,2-dimethylpropyl}carbamate], it took 1950 nM to reach half-maximal inhibition (IC50).

Compound `C=C[C@@H]1C[C@]1(NC(=O)[C@@H]1C[C@@]2(CN1C(=O)[C@@H](NC(=O)[C@@H](NC(=O)OC(C)(C)C)C(C)(C)C)C(C)(C)C)C(C)(C)C21CCC1)C(=O)NS(=O)(=O)C1CC1` [Compound 6, tert-butyl [(1S)-1-{[(1S)-1-{[(5R,8S)-8-({(1R,2S)-1-[(cyclopropylsulfonyl)carba-moyl]-2-vinylcyclopropyl}carbamoyl)-10,10-dimethyl-7-azadispiro[3.0.4.1]dec-7-yl]carbonyl}-2,2-dimethylpropyl]carbamoyl}-2,2-dimethylpropyl]carbamate] had an IC50 of 80 nM. The same measure, in the same setting: then `C=C[C@@H]1C[C@]1(NC(=O)[C@@H]1C[C@@]2(CN1C(=O)[C@@H](NC(=O)[C@@H](NC(=O)[C@@H]1CCCN(CCF)C1)C(C)(C)C)C(C)(C)C)C(C)(C)C21CCC1)C(=O)NS(=O)(=O)C1CC1` [Compound 8, (5R,8S)-N-{(1R,2S)-1-[(cyclopropylsulfonyl)carba-moyl]-2-vinylcyclopropyl}-7-[(2S)-2-{[(2S)-2-({[(3R)-1-(2-fluoroethyl)piperidin-3-yl]carbonyl}amino)-3,3-dimethylbutanoyl]amino}-3,3-dimethylbutanoyl]-10,10-dimethyl-7-azadispiro[3.0.4.1]decane-8-carboxamide], with 25 nM.

As to `C=C[C@@H]1C[C@]1(NC(=O)[C@@H]1C[C@@]2(CN1C(=O)[C@@H](NC(=O)[C@@H](NC(=O)[C@@H]1CCCCN1CCF)C(C)(C)C)C(C)(C)C)C(C)(C)C21CCC1)C(=O)NS(=O)(=O)C1CC1` [Compound 9, (5R,8S)-N-{(1R,2S)-1-[(cyclopropylsulfonyl)carba-moyl]-2-vinylcyclopropyl}-7-[(2S)-2-{[(2S)-2-({[(2S)-1-(2-fluoroethyl)piperidin-2-yl]carbonyl}amino)-3,3-dimethylbutanoyl]amino}-3,3-dimethylbutanoyl]-10,10-dimethyl-7-azadispiro[3.0.4.1]decane-8-carboxamide], the IC50 was 8 nM. In turn, `C=C[C@@H]1C[C@]1(NC(=O)[C@@H]1C[C@@]2(CN1C(=O)[C@@H](NC(=O)[C@@H](NC(=O)[C@@H]1CCCCN1CCF)C(C)(C)C)C(C)(C)C)C(C)(C)C21CCC1)C(=O)NS(=O)(=O)c1cccc2cc[nH]c12` [Compound 14, (5R,8S)-7-[(2S)-2-{[(2S)-2-({[(2S)-1-(2-fluoroethyl)piperidin-2-yl]carbonyl}amino)-3,3-dimethylbutanoyl]amino}-3,3-dimethylbutanoyl]-N-{(1R,2S)-1-[(1H-indol-7-ylsulfonyl)carbamoyl]-2-vinylcyclopropyl}-10,10-dimethyl-7-azadispiro[3.0.4.1]decane-8-carboxamide] yielded an IC50 of 6.5 nM. Still for that read-out and setting: then `CC(C)N1CCCC[C@H]1C(=O)N[C@H](C(=O)N[C@H](C(=O)N1C[C@]2(CC1C(=O)NC1(C(=O)NS(=O)(=O)C3CC3)CC1(C)C)C(C)(C)C21CCC1)C(C)(C)C)C(C)(C)C` (stereo partly drawn) [Compound 15, (5R)-N-{1-[(cyclopropylsulfonyl)carba-moyl]-2,2-dimethylcyclopropyl}-7-[(2S)-2-{[(2S)-2-({[(2S)-1-isopropylpiperidin-2-yl]carbonyl}amino)-3,3-dimethylbutanoyl]amino}-3,3-dimethylbutanoyl]-10,10-dimethyl-7-azadispiro[3.0.4.1]decane-8-carboxamide], with 3700 nM.

The test is the same for the next values; noted with them: read-out: Protease IC50.
Take `C=C[C@@H]1C[C@]1(NC(=O)[C@@H]1C[C@@]2(CN1C(=O)[C@@H](NC(=O)OC(C)(C)C)C(C)C)C(C)(C)C21CCC1)C(=O)NS(=O)(=O)C1CC1` [Compound 1, tert-butyl [(1S)-1-{[(5R,8S)-8-({(1R,2S)-1-[(cyclopropylsulfonyl)carba-moyl]-2-vinylcyclopropyl}carbamoyl)-10,10-dimethyl-7-azadispiro[3.0.4.1]dec-7-yl]carbonyl}-2-methylpropyl]carbamate]: the IC50 stood at 100 nM. `C=C[C@@H]1C[C@]1(NC(=O)[C@@H]1C[C@@]2(CN1C(=O)[C@@H](NC(=O)CC1CCCCC1)C(C)(C)C)C(C)(C)C21CCC1)C(=O)NS(=O)(=O)C1CC1` [Compound 7, (5R,8S)-7-{(2S)-2-[(cyclohexylacetyl)amino]-3,3-dimethylbutanoyl}-N-{(1R,2S)-1-[(cyclopropylsulfonyl)carba-moyl]-2-vinylcyclopropyl}-10,10-dimethyl-7-azadispiro[3.0.4.1]decane-8-carboxamide]: the IC50 came to 100 nM. The same measure, in the same setting: then `C=C[C@@H]1C[C@]1(NC(=O)[C@@H]1C[C@@]2(CN1C(=O)[C@@H](NC(=O)OC1CCCC1)C(C)(C)C)C(C)(C)C21CCC1)C(=O)NS(=O)(=O)C1CC1` [Compound 10, cyclopentyl [(1S)-1-{[(5R,8S)-8-({(1R,2S)-1-[(cyclopropylsulfonyl)carba-moyl]-2-vinylcyclopropyl}carbamoyl)-10,10-dimethyl-7-azadispiro[3.0.4.1]dec-7-yl]carbonyl}-2,2-dimethylpropyl]carbamate], with 25 nM; and `C=C[C@@H]1C[C@]1(NC(=O)[C@@H]1C[C@@]2(CN1C(=O)[C@@H](NC(=O)c1ccc3cnccc3n1)C(C)(C)C)C(C)(C)C21CCC1)C(=O)NS(=O)(=O)C1CC1` [Compound 11, (5R,8S)-N-{(1R,2S)-1-[(cyclopropylsulfonyl)carba-moyl]-2-vinylcyclopropyl}-7-{(2S)-3,3-dimethyl-2-[(1,6-naphthyridin-2-ylcarbonyl)amino]butanoyl}-10,10-dimethyl-7-azadispiro[3.0.4.1]decane-8-carboxamide], with 200 nM; and `C=C[C@@H]1C[C@]1(NC(=O)[C@@H]1C[C@@]2(CN1C(=O)[C@@H](NCc1nc3ccccc3n1C)C(C)(C)C)C(C)(C)C21CCC1)C(=O)NS(=O)(=O)C1CC1` [Compound 12, (5R,8S)-N-{(1R,2S)-1-[(cyclopropylsulfonyl)carba-moyl]-2-vinylcyclopropyl}-7-[(2S)-3,3-dimethyl-2-{[(1-methyl-1H-benzimidazol-2-yl)methyl]amino}butanoyl]-10,10-dimethyl-7-azadispiro[3.0.4.1]decane-8-carboxamide], with 400 nM. Still for that read-out and setting: then `C=C[C@@H]1C[C@]1(NC(=O)[C@@H]1C[C@@]2(CN1C(=O)[C@@H](NS(=O)(=O)c1nccn1C)C(C)(C)C)C(C)(C)C21CCC1)C(=O)NS(=O)(=O)C1CC1` [Compound 13, (5R,8S)-N-{(1R,2S)-1-[(cyclopropylsulfonyl)carba-moyl]-2-vinylcyclopropyl}-7-[(2S)-3,3-dimethyl-2-{[(1-methyl-1H-imidazol-2-yl)sulfonyl]amino}butanoyl]-10,10-dimethyl-7-azadispiro[3.0.4.1]decane-8-carboxamide], with 250 nM; and `C=C[C@@H]1C[C@]1(NC(=O)[C@@H]1C[C@@]2(CN1C(=O)[C@@H](NC(=O)N[C@H](CN1CCN(C)CC1)C(C)(C)C)C(C)(C)C)C(C)(C)C21CCC1)C(=O)NS(=O)(=O)C1CC1` [Compound 16, (5R,8S)-N-{(1R,2S)-1-[(cyclopropylsulfonyl)carba-moyl]-2-vinylcyclopropyl}-7-{(2S)-2-[({(1S)-2,2-dimethyl-1-[(4-methylpiperazin-1-yl)methyl]propyl}carbamoyl)amino]-3,3-dimethylbutanoyl}-10,10-dimethyl-7-azadispiro[3.0.4.1]decane-8-carboxamide], with 10 nM.

(Values after US20110182850A1, “ORGANIC COMPOUNDS AND THEIR USES” (priority 2009, published 2011).)
